Source: the NIST ThermoML archive (doi:10.1016/j.fluid.2006.05.007)
Numbers after ± are expanded uncertainties.

Test: xn = mol fraction of the nth substance listed
Conditions: Fluid (supercritical or subcritical phases)

CO [methanol] + O
mass density (572.91 K, 10085 kPa, x1 = 0.3044): 77.4 ± 1.6 kg/m3 | mass density (573.08 K, 10068 kPa, x1 = 0.4031): 79.4 ± 1.6 kg/m3 | mass density (573.15 K, 10080 kPa, x1 = 0.5144): 83.3 ± 1.6 kg/m3 | mass density (573.26 K, 10081 kPa, x1 = 0.59): 85.5 ± 1.7 kg/m3 | mass density (573.31 K, 10076 kPa, x1 = 0.7905): 92.4 ± 1.7 kg/m3 | mass density (573.34 K, 10081 kPa, x1 = 0.8802): 94.8 ± 1.7 kg/m3 | mass density (573.35 K, 10077 kPa, x1 = 0.6896): 87.7 ± 1.7 kg/m3 | mass density (573.43 K, 10083 kPa, x1 = 0.0997): 405 ± 3.6 kg/m3 | mass density (573.46 K, 11526 kPa, x1 = 0.4031): 107.2 ± 1.8 kg/m3 | mass density (573.49 K, 10078 kPa, x1 = 0.0494): 679.2 ± 3.2 kg/m3 | mass density (573.52 K, 11527 kPa, x1 = 0.5144): 108.7 ± 1.9 kg/m3 | mass density (573.63 K, 11542 kPa, x1 = 0.59): 111.3 ± 1.9 kg/m3 | mass density (573.67 K, 11523 kPa, x1 = 0.6896): 113.3 ± 1.9 kg/m3 | mass density (573.72 K, 11537 kPa, x1 = 0.0175): 704.3 ± 3.2 kg/m3 | mass density (573.74 K, 11532 kPa, x1 = 0.7905): 115.7 ± 1.9 kg/m3 | mass density (573.74 K, 11535 kPa, x1 = 0.8802): 118.9 ± 1.9 kg/m3 | mass density (573.75 K, 11533 kPa, x1 = 0.007): 712.1 ± 3.1 kg/m3 | mass density (573.78 K, 11525 kPa, x1 = 0.0997): 646.8 ± 3.5 kg/m3 | mass density (573.78 K, 11527 kPa, x1 = 0.1971): 534.3 ± 4.2 kg/m3 | mass density (573.78 K, 11530 kPa, x1 = 0.1484): 611.5 ± 3.7 kg/m3 | mass density (573.79 K, 11533 kPa, x1 = 0.0494): 682.1 ± 3.3 kg/m3 | mass density (574.29 K, 20003 kPa, x1 = 0.0997): 671.8 ± 4.2 kg/m3 | mass density (574.34 K, 20013 kPa, x1 = 0.3044): 560.2 ± 5.2 kg/m3 | mass density (574.34 K, 20016 kPa, x1 = 0.6896): 398.6 ± 4.8 kg/m3 | mass density (574.35 K, 20000 kPa, x1 = 0.0494): 701.9 ± 3.9 kg/m3 | mass density (574.37 K, 19997 kPa, x1 = 0.1484): 645.8 ± 4.4 kg/m3 | mass density (574.37 K, 20007 kPa, x1 = 0.59): 431.4 ± 5.2 kg/m3 | mass density (574.37 K, 20014 kPa, x1 = 0.1971): 617 ± 4.7 kg/m3 | mass density (574.37 K, 20019 kPa, x1 = 0.4031): 512.2 ± 5.7 kg/m3 | mass density (574.38 K, 20012 kPa, x1 = 0.7905): 375.2 ± 4.6 kg/m3 | mass density (574.39 K, 20005 kPa, x1 = 0.5144): 460.1 ± 5.4 kg/m3 | mass density (574.45 K, 20012 kPa, x1 = 0.8802): 354.5 ± 4.4 kg/m3 | mass density (588.56 K, 13757 kPa, x1 = 0.3044): 135.3 ± 2.3 kg/m3 | mass density (588.59 K, 13753 kPa, x1 = 0.5144): 131.6 ± 2.3 kg/m3 | mass density (588.63 K, 13755 kPa, x1 = 0.4031): 133 ± 2.3 kg/m3 | mass density (588.68 K, 13752 kPa, x1 = 0.7905): 137.1 ± 2.3 kg/m3 | mass density (588.69 K, 13759 kPa, x1 = 0.59): 132.6 ± 2.3 kg/m3 | mass density (588.74 K, 13760 kPa, x1 = 0.6896): 134.8 ± 2.3 kg/m3 | mass density (588.76 K, 13753 kPa, x1 = 0.1971): 409.6 ± 4.4 kg/m3 | mass density (588.79 K, 13754 kPa, x1 = 0.8802): 139.5 ± 2.4 kg/m3 | mass density (588.8 K, 13760 kPa, x1 = 0.1484): 563.2 ± 4.6 kg/m3 | mass density (588.81 K, 13767 kPa, x1 = 0.007): 679.9 ± 3.7 kg/m3 | mass density (588.83 K, 13755 kPa, x1 = 0.0997): 606.6 ± 4.2 kg/m3 | mass density (588.84 K, 13753 kPa, x1 = 0.0175): 672.4 ± 3.8 kg/m3 | mass density (588.85 K, 13755 kPa, x1 = 0.0494): 647.6 ± 3.9 kg/m3
